The target of one series is T1, HDAC1 (Homo sapiens, UniProt Q13547).
T1 construct: purchased Enzo Life Sciences International, Inc
Briefly: HDAC1 fluorimetric inhibitory activity assay (Fluor de Lys kit). Conditions: read-out: HDAC1-Inhibitory Ability (IC50). The class given is biochemical. On the procedure: HDAC1-inhibitory activity was determined using the HDAC activity analysis kit by fluorescence measurement (HDAC1 Fluorimetric Drug Discovery Assay Kit A Fluoro de Lys Fluorescent Assay System, Enzo Life Sciences International, Inc., Farmingdale, New York, USA) in accordance with the manufacturer’s instructions. Fluorescence was measured at an excitation wavelength of 360 nm and emission of 460 nm. […] All experiments were carried out in three repetitions.

For the next series, the system named is HeLa cells. Briefly: MTT cell viability, HeLa. The note with it: Homo sapiens, 24 h, read-out: IC50 cytotoxic effect, HeLa.
A short description of series [1]: MTT cell viability, Hek-293. The note with it: human, Hek-293 cells.
Description: (§1) For all experiments using cell lines, cells were cultured in a DMEM culture medium with the addition of 10% fetal bovine serum, 2 mM glutamine and 1% penicillin-streptomycin as antibiotics under standard conditions at 37 °C with 5% CO2.
(§2) Cell viability was measured using MTT analysis, as described earlier [48]. In short, 10,000 HeLa and Hek-293 cells per well were placed in sterile 96-well culture plates and cultured under the standard conditions described above for 24 h to adhere. After the time elapsed, the cells were treated with the studied compounds in a concentration range from 0.1 to 100 µM (0.1–1–3–10–30–100) and incubated for 24 h. The control samples contained an equivalent volume of solvent (DMSO < 1%). At the end of incubation, cell viability was measured by adding an MTT solution (the final concentration was 5 mg/mL, DiaM, Moscow, Russia). After 2 h of incubation at 37 °C, the nutrient medium was carefully aspirated and replaced with 200 µL of dimethyl sulfoxide to dissolve the formazane granules. The optical density of the formazane solution was determined using a multifunctional analyzer Cytation™3 (BioTek Instruments, Inc., Winooski, VT, USA) at λ = 530 nm. All experiments were carried out in three repetitions.
A further series is described as follows: in vitro. Conditions: human.
For another series, the system named is PA-1 cells. Briefly: Glycolysis stress test (Seahorse XFe96, ECAR). The note with it: PA-1, 100 µM. In kind it is cell-based, human. As for the experimental part:
In order to achieve a 90–95% monolayer, approximately 40,000 PA-1 cells per well were placed in XF96 cell-culture plates and a glycolysis stress test was performed 24 h later using an XFe96 extracellular flow analyzer (Seahorse Bioscience, North Billerica, MA, USA) by measuring the rate of extracellular medium acidification (ECAR).
Briefly, after the cells were seeded, the plate was placed in an incubator and cultured for 24 h under the standard conditions described above.
After placing the tablet in the analyzer, a step-by-step measurement of the extracellular acidification rate of the medium was performed in response to the sequential addition of modulators: port A—the studied compounds at a concentration of 100 µM, port B—10 mM of glucose (Seahorse Bioscience, North Billerica, MA, USA), port C—1 µM of oligomycin (Sigma Aldrich, St. Louis, MI, USA) and port D—25 mM 2-deoxy-D-glucose (Sigma Aldrich, St. Louis, MI, USA). To ensure the stability of each measurement, three separate readings were taken.
Glycolysis was measured by estimating the difference between the maximum ECAR after glucose injection and the last measurement before glucose addition. Such a parameter of glycolytic function as glycolytic capacity was determined by analyzing the difference between the maximum ECAR after oligomycin injection and the last measurement before glucose addition. Glycolytic reserve was defined as the difference between glycolytic capacity and glycolysis.

Another series relates to HeLa cell line. Briefly: Cisplatin cytotoxicity alone and combined with hydroxamic acids, HeLa (MTT). In kind it is cell-based, human. Conditions: 5 µM of compound with cisplatin.
A further series concerns HeLa/CDDP cells. Briefly: Cisplatin cytotoxicity alone and combined with hydroxamic acids, cisplatin-resistant HeLa/CDDP (MTT). Conditions: 5 µM hydroxamic acid. In kind it is cell-based, human.

T1 sequence (Q13547 whole entry): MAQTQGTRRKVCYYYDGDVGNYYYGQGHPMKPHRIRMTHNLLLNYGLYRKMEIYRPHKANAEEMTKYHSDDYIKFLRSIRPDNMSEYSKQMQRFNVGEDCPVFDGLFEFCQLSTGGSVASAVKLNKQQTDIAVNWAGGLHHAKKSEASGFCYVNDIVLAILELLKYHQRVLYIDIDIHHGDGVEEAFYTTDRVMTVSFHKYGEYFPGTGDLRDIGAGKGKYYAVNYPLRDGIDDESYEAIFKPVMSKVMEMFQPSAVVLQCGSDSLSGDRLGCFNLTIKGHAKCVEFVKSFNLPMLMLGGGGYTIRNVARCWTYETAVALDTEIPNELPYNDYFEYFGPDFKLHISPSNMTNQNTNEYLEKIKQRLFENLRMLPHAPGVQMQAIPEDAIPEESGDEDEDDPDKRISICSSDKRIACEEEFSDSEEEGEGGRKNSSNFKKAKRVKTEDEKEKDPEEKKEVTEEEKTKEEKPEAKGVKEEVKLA
Description for HeLa cell line: Cell viability was measured using MTT analysis, as described earlier [48]. In short, 10,000 HeLa and Hek-293 cells per well were placed in sterile 96-well culture plates and cultured under the standard conditions described above for 24 h to adhere. After the time elapsed, the cells were treated with the studied compounds in a concentration range from 0.1 to 100 µM (0.1–1–3–10–30–100) and incubated for 24 h. The control samples contained an equivalent volume of solvent (DMSO < 1%). At the end of incubation, cell viability was measured by adding an MTT solution (the final concentration was 5 mg/mL, DiaM, Moscow, Russia). After 2 h of incubation at 37 °C, the nutrient medium was carefully aspirated and replaced with 200 µL of dimethyl sulfoxide to dissolve the formazane granules. The optical density of the formazane solution was determined using a multifunctional analyzer Cytation™3 (BioTek Instruments, Inc., Winooski, VT, USA) at λ = 530 nm. […]
Then, the cells were treated with a combination of increasing doses of cytostatic agents and the test compound with a constant ratio of 1:4, and subsequently, a cell death analysis was performed. The CI values were calculated and plotted using CompuSyn.exe (Biosoft, Ferguson, MO, USA) based on the concentration and effect of each agent and their combinations according to instructions of the software. […]
Description for HeLa cells: as §1, §2
Description for HeLa/CDDP cells: Cell viability was measured using MTT analysis, as described earlier [48]. In short, 10,000 HeLa and Hek-293 cells per well were placed in sterile 96-well culture plates and cultured under the standard conditions described above for 24 h to adhere. After the time elapsed, the cells were treated with the studied compounds in a concentration range from 0.1 to 100 µM (0.1–1–3–10–30–100) and incubated for 24 h. The control samples contained an equivalent volume of solvent (DMSO < 1%). At the end of incubation, cell viability was measured by adding an MTT solution (the final concentration was 5 mg/mL, DiaM, Moscow, Russia). […] The optical density of the formazane solution was determined using a multifunctional analyzer Cytation™3 (BioTek Instruments, Inc., Winooski, VT, USA) at λ = 530 nm. All experiments were carried out in three repetitions.
Description for in vitro: as §1, §2

A word on the IC50: it is the point on the concentration scale where inhibition reaches its midpoint. As for `CC1(C)C2CC=C(CNC(=O)/C=C/c3ccc(C(=O)NO)cc3)[C@H]1C2` [18b, 4-((E)-3-((((1S)-6,6-Dimethylbicyclo[3.1.1]hept-2-en-2-yl)methyl)amino)-3-oxoprop-1-en-1-yl)-N-hydroxybenzamide], the IC50 at HDAC1 worked out at 7.96 ± 0.28 µM; in the series on HeLa cells, 43.6 ± 1.02 µM. In series [1], the IC50 at 24 h was 38.9 ± 1.24 µM.

Consider `CC1(C)C2CC=C(CNC(=O)c3ccc(/C=C/C(=O)NO)cc3)[C@H]1C2` [21b, N-(((1S)-6,6-Dimethylbicyclo[3.1.1]hept-2-en-2-yl)methyl)-4-((E)-3-(hydroxyamino)-3-oxoprop-1-en-1-yl)benzamide], for which the IC50 is 8.2 ± 0.49 µM at HDAC1 and 42.8 ± 1.28 µM in the series on HeLa cells. Besides, the IC50 at 24 h in the series “in vitro” is 37.2 ± 1.89 µM.

For the molecule `CC(/C=C/C(=O)NO)=C\[C@@H](C)C(=O)c1ccc(N(C)C)cc1` [Trichostatin A, reference compound], the IC50 with HeLa cells worked out at 0.38 ± 0.02 µM. Besides, the IC50 at 24 h in series [1] turned out to be 0.22 ± 0.01 µM.

A word on the melting point: it is the temperature, or range, at which the solid turns liquid. Molecule `CC1(C)C2CC=C(CCNC(=O)c3ccc(/C=C/C(=O)NO)cc3)[C@@H]1C2` [21c, N-(2-((1R)-6,6-Dimethylbicyclo [3.1.1]hept-2-en-2-yl)ethyl)-4-((E)-3-(hydroxyamino)-3-oxoprop-1-en-1-yl)benzamide] displayed a melting point of 132.5 to 132.6 °C. In addition, at HDAC1, the IC50 was found to be 5 ± 0.12 µM. Moreover, in the series on HeLa cells, the IC50 turned out to be 19.1 ± 0.96 µM. In addition, the midpoint of inhibition in series [1], the IC50 at 24 h, lay at 33.9 ± 2.59 µM.

In the case of `CC1(C)C2CC=C(CNC(=O)/C=C/c3ccc(C(=O)NO)cc3)[C@@H]1C2` [18a, 4-((E)-3-((((1R)-6,6-Dimethylbicyclo[3.1.1]hept-2-en-2-yl)methyl)amino)-3-oxoprop-1-en-1-yl)-N-hydroxybenzamide], the melting point came out at 96.5 °C. Also, the IC50 at HDAC1 was found to be 6.9 ± 0.03 µM. Besides, the IC50 in the series with HeLa cells is 29.2 ± 1.06 µM. Besides, the midpoint of inhibition in series [1], the IC50 at 24 h, lay at 46.7 ± 2.93 µM.

For the molecule `CC1(C)C2CC=C(CNC(=O)c3ccc(/C=C/C(=O)NO)cc3)[C@@H]1C2` [21a, N-(((1R)-6,6-Dimethylbicyclo[3.1.1]hept-2-en-2-yl)methyl)-4-((E)-3-(hydroxyamino)-3-oxoprop-1-en-1-yl)benzamide], the melting point came to 74.6 °C. Further, the IC50 on HDAC1 was determined as 7.23 ± 0.46 µM. In the series “in vitro”, the IC50 at 24 h was 21.2 ± 1.66 µM. The half-maximal inhibitory concentration (IC50) with HeLa cells is 18 ± 0.47 µM.

What is called inhibition is how much of the control response was suppressed. For `CC1(C)C2CC=C(CCNC(=O)/C=C/c3ccc(C(=O)NO)cc3)[C@@H]1C2` [18c, 4-((E)-3-((2-((1R)-6,6-Dimethylbicyclo[3.1.1]hept-2-en-2-yl)ethyl)amino)-3-oxoprop-1-en-1-yl)-N-hydroxybenzamide], the IC50 at HDAC1 amounted to 4.45 ± 0.3 µM; with HeLa cells, 33.8 ± 1.19 µM. For the same molecule, in the series on PA-1 cells (Homo sapiens, vs. control, read-out: inhibition of glycolytic reserve (ECAR)), the inhibition at 100 µM amounted to 86%. In addition, in the series with PA-1 cells (p < 0.0001 vs. control), the “glycolytic capacity (maximum ECAR after oligomycin injection)” value is reported as “significantly lower”. Also, in the series with PA-1 cells (vs. control), the “reduction of glycolysis (ECAR)” value is recorded as 26.6%. Besides, the “decrease in the value of cisplatin IC50” value in the series with HeLa cell line turned out to be 34.50%. For the same molecule, in the series with HeLa/CDDP cells, the “fold decrease in the IC50 of cisplatin” value was “approximately 2.02 fold”. For the same molecule, the IC50 at 24 h in series [1] was 34 ± 3.04 µM.

Source of the values: PMC10605847 (Cancers, 2023).
